Experimental data as given in patent US7157256B2, “Method for producing para-hydroxystyrene and other multifunctional aromatic compounds using two-phase extractive fermentation” (E. I. du Pont de Nemours and Company, priority 2003, dated 2007).
Several values for one entry are separate records, joined by “and”; a condition that tells them apart may be missing. Equal values may be shown once.

What was measured:
E. coli TY1 (DGL430) = experiment: Effect of pHCA and pHS on growth and fermentation of E. coli, shake flasks; assay type: cell-based; settings: E. coli TY1 shake flask
Experimental: This study was done using E. coli TY1 (DGL430), a tyrosine overproducing strain obtained from OmniGene Bioproducts, Inc. (Cambridge, Mass.). This strain also produces phenylalanine. The seed culture of this strain was propagated in a medium consisting of MgSO4.7H2O (0.5 g/L), (NH4)2SO4 (4 g/L), MOPS (20.9 g/L) and 10 mL of phosphate solution. The pH of the seed medium was adjusted to pH 6.8 and then the medium was steam-sterilized. The phosphate solution contained KH2PO4 (57.3 g/L) and K2HPO4 (110.2 g/L) and was adjusted to pH 6.8. The following solutions were then aseptically added to the seed medium to give the final concentration given in parentheses: thiamine (1 mg/L), glucose (1 g/L), lactose (15 g/L), 5 mL of a trace element solution, and tetracycline (5 mg/L). The trace element solution contained citric acid (10 g/L), CaCl2.2H2O (1.5 g/L), FeSO4.7H2O (5 g/L), ZnSO4.7H2O (0.39 g/L) and CuSO4.5H2O (0.38 g/L). The seed medium was inoculated from a frozen pre-seed culture and was grown in 250 mL baffled flasks in an Innova 4000 incubator shaker (New Brunswick Scientific Co., Edison, N.J.), incubated at 35° C. and 300 rpm for 12–16 h. One milliliter of this seed culture was used to inoculate each of the test cultures.
The test medium was 50 mL of an aqueous solution containing: (NH4)2SO4 (4 g), 1 mL of phosphate solution, MgSO4.7H2O (0.5 g), and MOPS (20.9 g), with the pH adjusted to 7.0. After sterilization of this medium, thiamine (1 mg/L), 5 mL of trace element solution, glucose (2 g/L), lactose (15 g/L), IPTG (0.5 mM), and tetracycline (10 mg/L) were aseptically added to give the final concentration given in parentheses. The 250 mL baffled flasks containing 50 mL of the test medium were inoculated with the seed culture and were incubated at 35° C. and 300 rpm for 42 h in the incubator shaker. Samples of the culture were taken at various times and the optical density at 550 nm (OD550) was measured spectrophotometrically. The pH of these samples was also measured. After completion of the fermentation, the tyrosine and phenylalanine concentrations in the culture were measured using HPLC, as described supra.
This experiment was repeated using pHS in place of pHCA.

[1] = Partition of pHS between organic solvent and aqueous medium, two-phase flask fermentation; assay type: physicochemical; settings: 15 h, 35° C.
Experimental: Samples were analyzed for tyrosine, phenylalanine, CA, pHCA, and pHS using reverse-phase chromatography with an Agilent HP1100 HPLC system equipped with an autosampler, diode-array detector, and ChemStation for data acquisition and processing (Agilent Technologies, Inc., Wilmington, Del.). The analyses were done using a 4.6 mm×15 cm Zorbax SB-C18 column (3.5 μm particle size), obtained from Agilent Technologies, Inc., thermostated at 35° C. The samples were run using a flow rate of 1.0 mL/min with an eight-minute solvent gradient from 5% acetonitrile/water, containing 0.1% trifluoroacetic acid, to 80% acetonitrile/water, containing 0.1% trifluoroacetic acid. A diode-array detector set at 210, 260, and 280 nm was used to detect the various compounds at their optimum absorbance wavelength.
The aqueous samples were diluted 1:3 with water, while the organic samples were diluted 1:3 with acetonitrile before injection of 50 μL of the sample into the HPLC. A standard mixture of the analytes was prepared by mixing equal portions of solutions of the individual components, each at a concentration of 1 mg/mL.
The strain used in this study was E. coli WWQ51.1, as described in Example 3. […] The OD550, pH, glucose concentration and the pHS concentration of the aqueous phases were measured as described in Example 3. The organic phases were analyzed for pHS using HPLC, as described supra.

Which results are given for `C=Cc1ccc(O)cc1` [pHS, para-hydroxystyrene]?
concentration at which complete inhibition of growth / no growth was observed (E. coli TY1 (DGL430)): 0.4 g/L; concentration that inhibited cell growth (E. coli TY1 (DGL430)): 0.2 g/L; pHS Partition coeff ([1]; 20 mL 2-undecanone / 50 mL test medium): 20 and 23; pHS Partition coeff ([1]; 20 mL DBE / 50 mL test medium): 29 and 30 and 31
